pEC50: −log10 of the molar value.
system: HIV-1IIIB (wild type); assay: XTT assay in MT-4 cells infected with wild type HIV-1IIIB; format: cell-based; conditions: Human immunodeficiency virus 1, MT4, read-out: ED50
Method: Compounds of the invention are assayed for HIV activity, for example using multiple determinations with XTT in MT-4 cells (Weislow et al, J Nat Cancer Inst 1989, vol 81 no 8, 577 et seq), preferably including determinations in the presence of 40-50% human serum to indicate the contribution of protein binding. In short the XTT assay uses human T cell line MT4 cells grown in RPMI 1640 medium supplemented with 10% fetal calf serum (or 40-50% human serum as appropriate), penicillin and streptomycin seeded into 96 well microplates (2·10^4 cells/well) infected with 10-20 TCID50 per well of HIV-1IIIB (wild type) or mutant virus, such as those bearing RT lie 100, Cys 181 or Asn 103 mutations. Serially diluted test compounds are added to respective wells and the culture incubated at 37° C. in a CO2 enriched atmosphere and the viability of cells is determined at day five or six with XTT vital dye. Results are typically presented as ED50 μM.

| Compound | pEC50 |
| --- | --- |
| N#Cc1ccc(NC(=O)N[C@@H]2[C@@H]3COc4cc(F)cc(F)c4[C@@H]32)nc1 (relative stereo) [Example 23, 1-(5-Cyano-pyridin-2-yl)-3-(5,7-difluoro-1,1a,2,7b-tetrahydro-cyclopropa[c]chromen-1-yl)urea] | 8.15 |
| N#Cc1ccc(NC(=O)N[C@@H]2[C@@H]3COc4c(Cl)ccc(Cl)c4[C@@H]32)nc1 [Example 33, +/−-cis-N-(5-cyano-2-pyridinyl)-N′-(4,7-dichloro-1,1a,2,7b-tetrahydrocyclopropa[c]chromen-1-yl)urea] | 8.05 |
| O=C(Nc1ccc(Cl)cn1)N[C@H]1C2c3c(F)ccc(F)c3OC[C@H]21 (single isomer, unassigned; (-)) [Example 31, (−) cis-1-(5-Chloro-pyridin-2-yl)-3-(4,7-difluoro-1,1a,2,7b-tetrahydro-cyclopropa[c]chromen-1-yl)-urea] | 8.60 |
| N#Cc1ccc(NC(=O)N[C@@H]2[C@@H]3COc4c(Br)ccc(F)c4[C@@H]32)nc1 [Example 24, cis-1-(4-Bromo-7-fluoro-1,1a,2,7b-tetrahydro-cyclopropa[c]chromen-1-yl)-3-(5-cyano-pyridin-2-yl)-urea] | 7.70 |
| N#Cc1ccc(NC(=O)NC2C3Sc4ccccc4C23)nc1 (racemic) [Example 43, (+/−)cis N-[1a,6b-dihydro-1H-benzo[b]cyclopropa[d]thien-1-yl]-N′-(5-cyano-2-pyridinyl)-urea] | 8.70 |
| N#Cc1ccc(NC(=O)N[C@@H]2[C@@H]3COc4c(F)ccc(F)c4[C@@H]32)nc1 [Example 30, (−)-cis-1-(5-Cyano-pyridin-2-yl)-3-(4,7-difluoro-1,1a,2,7b-tetrahydro-cyclopropa[c]chromen-1-yl)-urea] | 8.52 |

same assay, conditions: XTT assay, MT-4 cells, wild type HIV-1IIIB; read-out: ED50 (the source's name)

| Compound | pEC50 |
| --- | --- |
| O=C(Nc1ccc(Oc2ccccc2)cn1)N[C@@H]1[C@@H]2COc3c(F)ccc(F)c3[C@@H]21 (relative stereo) [Example 20, +/−cis-1-(4,7-Difluoro-1,1a,2,7b-tetrahydro-cyclopropa[c]chromen-1-yl)-3-(5-phenoxy-pyridin-2-yl)-urea] | 8.15 |
| (+/−)-cis-1-(4,7-Difluoro-1,1a,2,7b-tetrahydro-cyclopropa[c]chromen-1-yl)-3-(5-ethynyl-pyridin-2-yl)-urea [Example 18] | 8.22 |
| (+/−)-cis-1-(5-Bromo-pyridin-2-yl)-3-(4,7-difluoro-1,1a,2,7b-tetrahydro-cyclopropa[c]chromen-1-yl)-urea [Example 19] | 8.00 |
| N#Cc1ccc(NC(=O)NC2C3COc4c(Cl)ccc(F)c4C32)nc1 (racemic) [Example 7, (±)-cis-1-(5-Cyano-pyridin-2-yl)-3-(7-fluoro-4-chloro-1,1a,2,7b-tetrahydro-cyclopropa[c]chromen-1-yl)-urea] | 8.15 |
| (+/−)-cis-1-(5-Cyano-3-methyl-pyridin-2-yl)-3-(4,7-difluoro-1,1a,2,7b-tetrahydro-cyclopropa[c]chromen-1-yl)-urea [Example 16] | 8.22 |

molecular target: T1, HIV-1 reverse transcriptase (Human immunodeficiency virus type 1 group M subtype B, UniProt P04585); assay: activity of separated optical isomers (test not stated); conditions: second eluting peak on chiral AGP column
T1 construct: active against reverse transcriptase, especially that of HIV-1

| Compound | activity of the more slowly eluting isomer, typically negative rotation |
| --- | --- |
| O=C(Nc1ccc(Cl)cn1)N[C@H]1C2c3c(F)ccc(F)c3OC[C@H]21 (single isomer, unassigned; (-)) [Example 31, (−) cis-1-(5-Chloro-pyridin-2-yl)-3-(4,7-difluoro-1,1a,2,7b-tetrahydro-cyclopropa[c]chromen-1-yl)-urea] | particularly active |
| N#Cc1ccc(NC(=O)N[C@@H]2[C@@H]3COc4c(F)ccc(F)c4[C@@H]32)nc1 [Example 30, (−)-cis-1-(5-Cyano-pyridin-2-yl)-3-(4,7-difluoro-1,1a,2,7b-tetrahydro-cyclopropa[c]chromen-1-yl)-urea] | particularly active |
